Measurements taken from publication PMC2191316 (The Journal of Experimental Medicine, 1994).
Residues, ends and D or L forms follow the SMILES beside them.

Target: DRB5*0101 molecules (Homo sapiens, UniProt P01903+Q30154)
Test: Inhibition of radiolabeled TT
Assay type: binding

Row | Compound | IC50 [nM]
1 | CC[C@H](C)[C@H](NC(=O)[C@H](CC(N)=O)NC(=O)[C@H](CCCCN)NC(=O)[C@H](Cc1ccccc1)NC(=O)[C@H](Cc1ccccc1)NC(=O)[C@H](Cc1c[nH]cn1)NC(=O)[C@@H](NC(=O)[C@@H](NC(=O)[C@@H]1CCCN1C(=O)[C@H](CC(N)=O)NC(=O)[C@H](CCC(=O)O)NC(=O)[C@@H](N)CC(=O)O)C(C)C)C(C)C)C(=O)N[C@H](C(=O)N[C@H](C(=O)N1CCC[C@H]1C(=O)N[C@@H](CCCNC(=N)N)C(=O)N[C@H](C(=O)N1CCC[C@H]1C(=O)N1CCC[C@H]1C(=O)O)[C@@H](C)O)[C@@H](C)O)C(C)C [(84-102)] | 55
2 | CC[C@H](C)[C@H](NC(=O)[C@H](CC(N)=O)NC(=O)[C@H](CCCCN)NC(=O)[C@H](Cc1ccccc1)NC(=O)[C@H](Cc1ccccc1)NC(=O)[C@H](Cc1c[nH]cn1)NC(=O)[C@@H](NC(=O)[C@@H](NC(=O)[C@@H]1CCCN1C(=O)[C@H](CC(N)=O)NC(=O)[C@H](C)N)C(C)C)C(C)C)C(=O)N[C@H](C(=O)N[C@H](C(=O)N1CCC[C@H]1C(=O)N[C@@H](CCCNC(=N)N)C(=O)O)[C@@H](C)O)C(C)C [(85-99)85A] (H-ANPVVHFFKNIVTPR-OH) | 420
3 | CC[C@H](C)[C@H](NC(=O)[C@H](CC(N)=O)NC(=O)[C@H](CCCCN)NC(=O)[C@H](Cc1ccccc1)NC(=O)[C@H](Cc1ccccc1)NC(=O)[C@H](Cc1c[nH]cn1)NC(=O)[C@@H](NC(=O)[C@@H](NC(=O)[C@@H]1CCCN1C(=O)[C@H](C)NC(=O)[C@@H](N)CCC(=O)O)C(C)C)C(C)C)C(=O)N[C@H](C(=O)N[C@H](C(=O)N1CCC[C@H]1C(=O)N[C@@H](CCCNC(=N)N)C(=O)O)[C@@H](C)O)C(C)C [(85-99)86A] (H-EAPVVHFFKNIVTPR-OH) | 940
4 | CC[C@H](C)[C@H](NC(=O)[C@H](CC(N)=O)NC(=O)[C@H](CCCCN)NC(=O)[C@H](Cc1ccccc1)NC(=O)[C@H](Cc1ccccc1)NC(=O)[C@H](Cc1c[nH]cn1)NC(=O)[C@@H](NC(=O)[C@@H](NC(=O)[C@H](C)NC(=O)[C@H](CC(N)=O)NC(=O)[C@@H](N)CCC(=O)O)C(C)C)C(C)C)C(=O)N[C@H](C(=O)N[C@H](C(=O)N1CCC[C@H]1C(=O)N[C@@H](CCCNC(=N)N)C(=O)O)[C@@H](C)O)C(C)C [(85-99)87A] (H-ENAVVHFFKNIVTPR-OH) | 610
5 | CC[C@H](C)[C@H](NC(=O)[C@H](CC(N)=O)NC(=O)[C@H](CCCCN)NC(=O)[C@H](Cc1ccccc1)NC(=O)[C@H](Cc1ccccc1)NC(=O)[C@H](Cc1c[nH]cn1)NC(=O)[C@@H](NC(=O)[C@H](C)NC(=O)[C@@H]1CCCN1C(=O)[C@H](CC(N)=O)NC(=O)[C@@H](N)CCC(=O)O)C(C)C)C(=O)N[C@H](C(=O)N[C@H](C(=O)N1CCC[C@H]1C(=O)N[C@@H](CCCNC(=N)N)C(=O)O)[C@@H](C)O)C(C)C [(85-99)88A] (H-ENPAVHFFKNIVTPR-OH) | 945
6 | CC[C@H](C)[C@H](NC(=O)[C@H](CC(N)=O)NC(=O)[C@H](CCCCN)NC(=O)[C@H](Cc1ccccc1)NC(=O)[C@H](Cc1ccccc1)NC(=O)[C@H](Cc1c[nH]cn1)NC(=O)[C@H](C)NC(=O)[C@@H](NC(=O)[C@@H]1CCCN1C(=O)[C@H](CC(N)=O)NC(=O)[C@@H](N)CCC(=O)O)C(C)C)C(=O)N[C@H](C(=O)N[C@H](C(=O)N1CCC[C@H]1C(=O)N[C@@H](CCCNC(=N)N)C(=O)O)[C@@H](C)O)C(C)C [(85-99)89A] (H-ENPVAHFFKNIVTPR-OH) | 690
7 | CC[C@H](C)[C@H](NC(=O)[C@H](CC(N)=O)NC(=O)[C@H](CCCCN)NC(=O)[C@H](Cc1ccccc1)NC(=O)[C@H](Cc1ccccc1)NC(=O)[C@H](C)NC(=O)[C@@H](NC(=O)[C@@H](NC(=O)[C@@H]1CCCN1C(=O)[C@H](CC(N)=O)NC(=O)[C@@H](N)CCC(=O)O)C(C)C)C(C)C)C(=O)N[C@H](C(=O)N[C@H](C(=O)N1CCC[C@H]1C(=O)N[C@@H](CCCNC(=N)N)C(=O)O)[C@@H](C)O)C(C)C [(85-99)90A] (H-ENPVVAFFKNIVTPR-OH) | 640
8 | CC[C@H](C)[C@H](NC(=O)[C@H](CC(N)=O)NC(=O)[C@H](CCCCN)NC(=O)[C@H](Cc1ccccc1)NC(=O)[C@H](C)NC(=O)[C@H](Cc1c[nH]cn1)NC(=O)[C@@H](NC(=O)[C@@H](NC(=O)[C@@H]1CCCN1C(=O)[C@H](CC(N)=O)NC(=O)[C@@H](N)CCC(=O)O)C(C)C)C(C)C)C(=O)N[C@H](C(=O)N[C@H](C(=O)N1CCC[C@H]1C(=O)N[C@@H](CCCNC(=N)N)C(=O)O)[C@@H](C)O)C(C)C [(85-99)91A] (H-ENPVVHAFKNIVTPR-OH) | 1300
9 | CC[C@H](C)[C@H](NC(=O)[C@H](CC(N)=O)NC(=O)[C@H](CCCCN)NC(=O)[C@H](C)NC(=O)[C@H](Cc1ccccc1)NC(=O)[C@H](Cc1c[nH]cn1)NC(=O)[C@@H](NC(=O)[C@@H](NC(=O)[C@@H]1CCCN1C(=O)[C@H](CC(N)=O)NC(=O)[C@@H](N)CCC(=O)O)C(C)C)C(C)C)C(=O)N[C@H](C(=O)N[C@H](C(=O)N1CCC[C@H]1C(=O)N[C@@H](CCCNC(=N)N)C(=O)O)[C@@H](C)O)C(C)C [(85-99)92A] (H-ENPVVHFAKNIVTPR-OH) | 8200
10 | CC[C@H](C)[C@H](NC(=O)[C@H](CC(N)=O)NC(=O)[C@H](C)NC(=O)[C@H](Cc1ccccc1)NC(=O)[C@H](Cc1ccccc1)NC(=O)[C@H](Cc1c[nH]cn1)NC(=O)[C@@H](NC(=O)[C@@H](NC(=O)[C@@H]1CCCN1C(=O)[C@H](CC(N)=O)NC(=O)[C@@H](N)CCC(=O)O)C(C)C)C(C)C)C(=O)N[C@H](C(=O)N[C@H](C(=O)N1CCC[C@H]1C(=O)N[C@@H](CCCNC(=N)N)C(=O)O)[C@@H](C)O)C(C)C [(85-99)93A] (H-ENPVVHFFANIVTPR-OH) | 2900
11 | CC[C@H](C)[C@H](NC(=O)[C@H](C)NC(=O)[C@H](CCCCN)NC(=O)[C@H](Cc1ccccc1)NC(=O)[C@H](Cc1ccccc1)NC(=O)[C@H](Cc1c[nH]cn1)NC(=O)[C@@H](NC(=O)[C@@H](NC(=O)[C@@H]1CCCN1C(=O)[C@H](CC(N)=O)NC(=O)[C@@H](N)CCC(=O)O)C(C)C)C(C)C)C(=O)N[C@H](C(=O)N[C@H](C(=O)N1CCC[C@H]1C(=O)N[C@@H](CCCNC(=N)N)C(=O)O)[C@@H](C)O)C(C)C [(85-99)94A] (H-ENPVVHFFKAIVTPR-OH) | 140
12 | CC(C)[C@H](NC(=O)[C@H](C)NC(=O)[C@H](CC(N)=O)NC(=O)[C@H](CCCCN)NC(=O)[C@H](Cc1ccccc1)NC(=O)[C@H](Cc1ccccc1)NC(=O)[C@H](Cc1c[nH]cn1)NC(=O)[C@@H](NC(=O)[C@@H](NC(=O)[C@@H]1CCCN1C(=O)[C@H](CC(N)=O)NC(=O)[C@@H](N)CCC(=O)O)C(C)C)C(C)C)C(=O)N[C@H](C(=O)N1CCC[C@H]1C(=O)N[C@@H](CCCNC(=N)N)C(=O)O)[C@@H](C)O [(85-99)95A] (H-ENPVVHFFKNAVTPR-OH) | 1100
13 | CC[C@H](C)[C@H](NC(=O)[C@H](CC(N)=O)NC(=O)[C@H](CCCCN)NC(=O)[C@H](Cc1ccccc1)NC(=O)[C@H](Cc1ccccc1)NC(=O)[C@H](Cc1c[nH]cn1)NC(=O)[C@@H](NC(=O)[C@@H](NC(=O)[C@@H]1CCCN1C(=O)[C@H](CC(N)=O)NC(=O)[C@@H](N)CCC(=O)O)C(C)C)C(C)C)C(=O)N[C@@H](C)C(=O)N[C@H](C(=O)N1CCC[C@H]1C(=O)N[C@@H](CCCNC(=N)N)C(=O)O)[C@@H](C)O [(85-99)96A] (H-ENPVVHFFKNIATPR-OH) | 730
14 | CC[C@H](C)[C@H](NC(=O)[C@H](CC(N)=O)NC(=O)[C@H](CCCCN)NC(=O)[C@H](Cc1ccccc1)NC(=O)[C@H](Cc1ccccc1)NC(=O)[C@H](Cc1c[nH]cn1)NC(=O)[C@@H](NC(=O)[C@@H](NC(=O)[C@@H]1CCCN1C(=O)[C@H](CC(N)=O)NC(=O)[C@@H](N)CCC(=O)O)C(C)C)C(C)C)C(=O)N[C@H](C(=O)N[C@H](C(=O)N[C@@H](C)C(=O)N[C@@H](CCCNC(=N)N)C(=O)O)[C@@H](C)O)C(C)C [(85-99)98A] (H-ENPVVHFFKNIVTAR-OH) | 350
15 | CC[C@H](C)[C@H](NC(=O)[C@H](CC(N)=O)NC(=O)[C@H](CCCCN)NC(=O)[C@H](Cc1ccccc1)NC(=O)[C@H](Cc1ccccc1)NC(=O)[C@H](Cc1c[nH]cn1)NC(=O)[C@@H](NC(=O)[C@@H](NC(=O)[C@@H]1CCCN1C(=O)[C@H](CC(N)=O)NC(=O)[C@@H](N)CCC(=O)O)C(C)C)C(C)C)C(=O)N[C@H](C(=O)N[C@H](C(=O)N1CCC[C@H]1C(=O)N[C@@H](C)C(=O)O)[C@@H](C)O)C(C)C [(85-99)99A] (H-ENPVVHFFKNIVTPA-OH) | 2300
16 | CC[C@H](C)[C@H](NC(=O)[C@H](CC(N)=O)NC(=O)[C@H](CCCCN)NC(=O)[C@H](Cc1ccccc1)NC(=O)[C@H](Cc1ccccc1)NC(=O)[C@H](Cc1c[nH]cn1)NC(=O)[C@@H](N)C(C)C)C(=O)N[C@H](C(=O)N[C@H](C(=O)N1CCC[C@H]1C(=O)N[C@@H](CCCNC(=N)N)C(=O)O)[C@@H](C)O)C(C)C [(89-99)] (H-VHFFKNIVTPR-OH) | 1200
